Data taken from article PMC9610207 (Viruses, 2022).

Columns and labels:
SARS-CoV-2 [1] = assay type: cell-based
SARS-CoV-2 [2] = details: cited from earlier work
SARS-CoV-2 [3] = details: cited from earlier work; remark: listed apart in the source
SARS-CoV-2 [4] = assay type: cell-based; remark: listed apart in the source

For CCN(CC)CCCC(C)Nc1ccnc2cc(Cl)ccc12 (stereo not shown) [chloroquine, Chloroquine], the “viral infection in VeroE6 with chloroquine” value (SARS-CoV-2 [1]) is given as “strongly inhibited”, the “SARS-CoV-2 infection in Calu-3, previous studies” value (SARS-CoV-2 [2]) is given as “not” and the “SARS-CoV-2 infection in VeroE6, previous studies” value (SARS-CoV-2 [3]) is given as “inhibited”. The “viral infection in Calu-3 with chloroquine” value (SARS-CoV-2 [4]) was “resistant”.
